Measurements published in US8329672B2, “Oral and/or topical compositions comprising prebiotics and fatty acid” (Cognis IP Management GmbH, priority 2004, dated 2012).

Columns and labels:
[1] = tested on: Bifidobacterium; assay: Stimulation of growth of Bifidobacterium in vitro (enumeration in human faecal homogenate culture); assay type: cell-based, Bifidobacterium spp; details: human faecal homogenate in diluted WC broth, incubated up to 24 hours, control 1.0 × 10^6
Description: (§1) The stimulation of growth of microorganisms has been studied by enumerating bifidobacterium and lactobacilli in vitro in the presence of various test substances. More specifically, aliquots (1 mL) of human faecal homogenates (10 g per 100 mL diluent) were added to diluted WC broth (diluted 50:50 with 0.05M phosphate buffer) to which were added the test mixtures and a lactobacillus or bifidobacterium strain. For each of the combinations, parallel tubes were prepared with one set being inoculated with Bifidobacterium spp or Lactobacillus spp. All mixtures were then incubated for up to 24 hours and bacterial numbers enumerated.

[2] = tested on: Lactobacterium; assay: Stimulation of growth of lactobacilli in vitro (enumeration in human faecal homogenate culture); assay type: cell-based, Lactobacillus spp; details: human faecal homogenate in diluted WC broth, incubated up to 24 hours, control 2.8 × 10^5
Description: as §1

Compound	Bacterial numbers (CFU/ml) ([1]; 1% prebiotic alone) [× × 10^7 CFU/ml]	Bacterial numbers (CFU/ml) ([2]; 1% prebiotic alone) [× × 10^6 CFU/ml]	Bacterial numbers (CFU/ml) ([1]; 1% fatty acid alone) [× × 10^6 CFU/ml]	Bacterial numbers (CFU/ml) ([2]; 1% fatty acid alone) [× × 10^5 CFU/ml]
Lactolin [C3]	1.6	1.5	–	–
CLA [C5]	–	–	3.5	4.2
CLA-TG [C6]	–	–	2.1	4.4
Betaglucan [C4]	1.2	1.1	–	–
CLA-SE [C7]	–	–	2.9	4.4
OC[C@H]1O[C@@H](O[C@H]2[C@H](O)[C@@H](O)[C@@H](O[C@]3(CO)O[C@H](CO)[C@@H](O)[C@@H]3O)O[C@@H]2CO)[C@H](O)[C@@H](O)[C@H]1O [C2, Lactosucrose]	1.1	1.1	–	–
